The record followed here is a melting point compilation (Tetko et al.; mined from patent text by program, amines drawn as free bases though some values may be those of a salt).

For orientation: melting point means the temperature of the solid-liquid transition.

In the case of `NC(=O)COc1ccc(OCc2ccccc2)cc1OCc1ccccc1`, the melting point amounted to 120 °C. For `COC(=O)c1ccc(-c2cc(-c3ccc(C(F)(F)F)cc3)on2)cc1`, the melting point lay within 183 to 184 °C. `COC(=O)Cc1nc2cc(OC)c(OC)cc2c(-c2ccc(OC)c(OC)c2)c1C(=O)OC` returned a melting point of 170 to 171 °C. The result for `Cc1ccc2c(c1)NC(=O)CO2` reads 204 to 205 °C; that for `Cc1ccc2cccc(OCc3c(Cl)ccc(S(=O)(=O)N(CCCCN)C(C)(C)C)c3Cl)c2n1`, 142 to 144 °C; that for `COc1c(O)ccc(C=O)c1[N+](=O)[O-]`, 136 to 137 °C. `CNC(=S)N(C)c1ccc(OC)nc1`: the melting point was found to be 116 °C. Under `Nc1c(-c2cc(Cl)ccc2O)nnn1-c1ccc(C(F)(F)F)cc1Cl` stands 74.5 to 77.5 °C; under `CC(=C=CC(=O)O)c1ccc(Cl)cc1`, 146 to 148 °C; under `CCOCc1nc2c(N)nc3ccccc3c2n1CCCC(N)=O`, 233 to 235 °C. Under `COc1ccc(N2CCN(CCn3c(=O)[nH]c4sccc4c3=O)CC2)cc1` stands 249 to 251 °C; under `COCOc1cc(Cl)ccc1-c1cc(-c2cccc(N(C(=O)OC(C)(C)C)C(=O)[C@@H](N)Cc3c[nH]cn3)c2)c(C#N)c(NC(=O)c2ccco2)n1`, 149 to 150 °C; under `O=C(Nc1ccccc1N1CCc2cc(Cl)ccc21)c1ccccc1`, 44 to 46 °C. `O=C1Nc2ccccc2Sc2cscc21` registered a melting point of 215 to 216 °C. The result for `O=S1(=O)N=CN(C2CC2)c2c1ccc(Br)c2F` reads 244 to 247 °C; that for `O=C(CCC#Cc1ccccn1)Nc1cccc(F)c1`, 110 to 114 °C.

`O=C(NCc1ccccn1)Nc1cc(N2CC(COc3ccccc3)OC2=O)ccn1` (stereo unspecified) registered a melting point of 155 to 156 °C. The result for `CC(C)(C)c1ccc(NC=CS(=O)(=O)F)cc1` reads 67 to 70.5 °C; that for `COC(=O)[C@@H]1CN(C(=O)OC(C)(C)C)CC[C@@H]1C(=O)O` (relative stereo), 129 to 136 °C. The result for `COC(=O)c1c(C)n(-c2cc([N+](=O)[O-])c(C)cc2C)cc(Cl)c1=O` reads 266 °C.

`CCOC(=O)Nn1cccc1C(=O)c1ccccc1F` yielded a melting point of 78 to 80 °C. The compound `CCNC(=O)C1=C(C(=O)Nc2cc(OC3CCCC3)c(Cl)cc2F)CCCC1` gave a melting point of 187 to 189 °C. The result for `O=c1oc(-c2ccccc2)ns1` reads 64 to 67 °C; that for `Oc1ccccc1-c1ccccc1-c1cccc2[pH]c3ccccc3c12` (stereo unspecified), 152 to 155 °C; that for `Cc1cc(C(=O)O)c(S(N)(=O)=O)s1`, 198 °C. The result for `CC1=NC(Cc2ncc(Br)cn2)C(Br)=CN1` (stereo unspecified) reads 176 °C; that for `OCC1OC(n2c(Br)nc3cc(Cl)c(Cl)cc32)CC1O` (stereo unspecified), 187 to 188 °C. Turning to `OCCCc1cn(-c2ccc(F)cc2)c2ccc(Cl)cc12`, the melting point was 67 to 69 °C.

Turning to `CN1c2ccccc2N=C(N2CCN(CCO)CC2)c2cscc21`, the melting point fell in the range of 192 to 193 °C. The result for `CN1C(=O)C(NC(=O)Nc2ccc(Br)cc2)N=C(c2ccccc2)c2ccccc21` (stereo unspecified) reads 286 to 287 °C; that for `Nc1cc(C2CC2)nn1C(=O)Nc1ccccc1`, 97 to 99 °C; that for `CC(=O)Nc1nc(CCc2ccc(C#N)cc2)cs1`, 205 to 206 °C.

For the compound `N#CC(=C1CCCCCN1)c1ccccc1`, the melting point fell in the range of 108 to 113 °C. The result for `COc1cc(OCc2oc(=O)oc2C)c(C(=O)CCc2ccc3occc3c2)cc1C1OC(CO)C(O)C(O)C1O` (stereo unspecified) reads 128 °C. The result for `CSCCNC(=O)c1cccc(-c2ccc3c(c2)C(Oc2ccc(Cl)cc2Cl)CC3)c1` (stereo unspecified) reads 141 to 142 °C. `CS(=O)c1ccc(F)c(-c2nc3ncccc3[nH]2)c1` (stereo unspecified) registered a melting point of 190 to 192 °C. `Cc1cc2c(c3ccc(=O)[nH]c13)OC(CC(=O)[C@@H](C)N)C2` (stereo partly specified) gave a melting point of 222 to 225 °C. Under `CC(C)CCCC(C)NC1=NS(=O)(=O)c2cc(Cl)ccc2N1` (stereo unspecified) stands > 220 °C.

`Cc1ccc(CCOc2ncnc3c(F)cccc23)cc1`: the melting point lay in the range of 72 to 74 °C. The result for `O=Cc1cccc(-c2cnco2)n1` reads 151 °C; that for `CCCCOc1c(CNC(=O)OC(C)(C)C)n(CC2CC2)c(=O)c2ccc(C=O)cc12`, 151 to 152 °C; that for `COc1ccc(Cn2c(=O)c3ccc4ccccc4c3c3c4ccccc4ccc32)cc1`, 229 °C.

The compound `COc1ccccc1NS(=O)(=O)c1cccc([N+](=O)[O-])c1` displayed a melting point of 130 to 132 °C.

In the case of `COc1cc(-c2ccc(C(C)C)cc2)c(C)c2oc(=O)c(C)c(C)c12`, the melting point was determined as 172 °C. The result for `Cc1cc(C)c(Oc2cccc(C#N)c2C#N)c(C)c1` reads 151 to 153 °C; that for `Cc1ccc(-c2cc(N)nn2C(=O)OC(C)(C)C)cc1`, 147 °C. Under `CCCn1c(=O)c2[nH]c(C(CC)Cc3ccccc3)nc2n(CCC)c1=O` (stereo unspecified) stands 180 °C; under `CN(CCCc1nc2ccccc2[nH]1)C(=O)OCc1ccccc1`, 83 to 86 °C.

As for `NS(=O)(=O)c1cc(Br)c2c(c1)S(=O)(=O)NC(C1CCCCC1)N2` (stereo unspecified), the melting point was 254 to 258 °C. In the case of `N#Cc1cnn2c1N(C(=O)CI)CC=C2c1cccc(C(F)(F)F)c1`, the melting point was in the range of 158 to 160 °C.

Compound `c1ccc2c(c1)OCCc1c-2n(CCCCCCN2CCCCC2)c2ccccc12` returned a melting point of 110 °C. Under `COC(=O)CC(C)C1CCC2C3CC=C4CC(O)CC(O)C4(C)C3CCC12C` (stereo unspecified) stands 144 to 146 °C; under `N#Cc1cnc2cc(Br)ccc2c1Nc1ccc(Cl)cc1Cl`, 180 to 183 °C; under `CCC(=O)N1C(=O)c2cc(C)ccc2Oc2ncccc21`, 142 to 145 °C. Under `CC12CCC(=O)C=C1CCC1C2CCC2(C)C(n3cnc4ccccc43)=CCC12` (stereo unspecified) stands 201 to 204 °C; under `CC(C)(C)OC(=O)N1CC=C(c2ccc(N)cc2F)CC1`, 96 to 98 °C. The result for `CN(C)c1ccc(C(=O)N2CCN(CCc3ccc(Cl)cc3)CC2)cc1` reads 133 to 134 °C. `O=C1CCC(c2ccc(CCCCCNC(=O)c3cccnc3)cc2)=NN1` displayed a melting point of 133 to 134 °C. Under `Cc1cc(I)cc(CO)c1N` stands 101 to 103 °C. Under `CC1Cc2cc(C3C(=O)Oc4c3cc(C(C)(C)C)cc4C(C)(C)C)ccc2O1` (stereo unspecified) stands 136 to 152 °C; under `COC(=O)c1ccc2c(c1)N(C(C)C)C(=O)C(C)(C)O2`, 75 to 77 °C; under `O=C(c1ccccc1)c1c(O)c(=O)ccn1CCO`, 195 to 200 °C. `Cc1ccc(S(=O)(=O)Nc2ccc([C@@H](C)C(N)=O)cc2)cc1`: the melting point lay within 138 to 140 °C. Under `CCOc1cccc(-c2ccc(C3=CCN(S(=O)(=O)CC(=O)NO)CC3)cc2C)c1` stands 151 to 153 °C; under `CCc1nc2ccccc2c(=O)o1`, 83.9 °C; under `Clc1cc(Cl)nc(N2CCCC2)n1`, 95 to 98 °C.
